# Reference: paper PMC11364845 (Scientific Reports, 2024)
# Key:
# [1] = tested on: prostate tumor-bearing TRAMP mice; conditions: 30 min dynamic PET, n = 3/group
# [2] = cited from earlier work
smiles,measurement,setting,value
"OC[C@H]1OC(O)[C@H](F)[C@@H](O)[C@@H]1O (stereo partly drawn) [^18F-FDG, ^18F-fluorodeoxyglucose]",Time-dependent blood distribution by dynamic PET: JV versus RO injection,[1],consistent circulation
same,Time to peak in circulation and distribute to half its concentration,[2]; after cardiac administration,≤ 5 s
same,Time to reach a plateau in tissues,[2],≤ 30 min
